Source: article PMC6471128, “Preparation and Identification of ACE Inhibitory Peptides from the Marine Macroalga Ulva intestinalis” (Marine Drugs, 2019)
Where two headings read alike, the source gives them in different places. Each block holds one molecule with its values, some of them ahead of it. Ends that are not written are not given here.

What was measured:
[1] = test system: ACE; conditions: cited from earlier work
From the text: ACE inhibitors (ACEIs) inhibit ACE activity and reduce blood pressure by inhibiting the synthesis of angiotensin II or promoting the release of bradykinin. Although ACEIs, such as enalapril, captopril, and lisinopril, are widely used in hypertension treatments, synthetic ACEIs have a series of negative effects, including hypotension, cough, increased potassium levels and, angioedema. Consequently, the development of safe and effective antihypertensive drugs is important, and due to antihypertensive effects and safety, there has been an increasing interest in food-derived ACE inhibito ...

[2] = biological target: T1, ACE (from rabbit lung) (Oryctolagus cuniculus, UniProt P12822); test: In vitro simulated gastrointestinal digestion (pepsin, then trypsin) followed by ACE inhibitory activity assay; assay type: in vitro ADME; conditions: for stability for pepsin and trypsin digestion: in vitro digestion, read-out ACE inhibitory activity
T1 construct: ACE (from rabbit lung); purchased Sigma Chemical Co. (St. Louis, MO, USA); host or cells: rabbit lung tissue
T1 sequence (P12822 34-1310): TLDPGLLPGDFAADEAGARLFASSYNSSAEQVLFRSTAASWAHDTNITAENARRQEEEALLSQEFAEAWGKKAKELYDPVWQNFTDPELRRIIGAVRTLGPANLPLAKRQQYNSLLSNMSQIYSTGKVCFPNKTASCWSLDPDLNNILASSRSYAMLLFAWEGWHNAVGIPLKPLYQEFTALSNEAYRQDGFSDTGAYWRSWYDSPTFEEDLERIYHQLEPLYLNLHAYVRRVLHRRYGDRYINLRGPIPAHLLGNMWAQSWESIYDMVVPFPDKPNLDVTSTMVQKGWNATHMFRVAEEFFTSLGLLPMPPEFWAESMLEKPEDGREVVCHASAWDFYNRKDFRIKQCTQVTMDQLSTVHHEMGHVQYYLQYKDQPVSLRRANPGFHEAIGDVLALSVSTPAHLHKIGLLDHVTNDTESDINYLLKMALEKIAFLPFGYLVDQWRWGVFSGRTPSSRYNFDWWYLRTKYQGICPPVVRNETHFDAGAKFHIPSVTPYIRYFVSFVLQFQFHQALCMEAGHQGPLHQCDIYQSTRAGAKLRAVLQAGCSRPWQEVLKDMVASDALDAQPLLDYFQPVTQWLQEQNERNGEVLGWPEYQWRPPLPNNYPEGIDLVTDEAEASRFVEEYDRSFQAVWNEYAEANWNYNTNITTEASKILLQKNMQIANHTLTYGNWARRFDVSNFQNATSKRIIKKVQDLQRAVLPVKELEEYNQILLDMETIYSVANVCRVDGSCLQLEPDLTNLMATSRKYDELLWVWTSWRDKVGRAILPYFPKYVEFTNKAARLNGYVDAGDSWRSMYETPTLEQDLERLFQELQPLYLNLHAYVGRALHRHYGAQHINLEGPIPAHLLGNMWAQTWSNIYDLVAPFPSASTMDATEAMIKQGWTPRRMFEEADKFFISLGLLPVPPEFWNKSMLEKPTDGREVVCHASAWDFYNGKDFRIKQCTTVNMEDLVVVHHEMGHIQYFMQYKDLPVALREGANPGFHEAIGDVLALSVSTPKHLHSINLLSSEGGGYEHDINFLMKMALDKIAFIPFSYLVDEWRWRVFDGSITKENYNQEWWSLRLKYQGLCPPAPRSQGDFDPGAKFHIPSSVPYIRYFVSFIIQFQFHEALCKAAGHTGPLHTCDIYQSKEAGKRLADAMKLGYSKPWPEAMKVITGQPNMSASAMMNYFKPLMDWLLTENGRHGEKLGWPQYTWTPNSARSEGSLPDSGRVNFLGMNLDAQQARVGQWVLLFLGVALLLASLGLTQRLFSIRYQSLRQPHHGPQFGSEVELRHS
Protocol: (§1) ACE inhibition was examined according to Shalaby et al. and Henda et al., with slight modifications. FAPGG and ACE were dissolved in 50 mM Tris-HCl (pH 7.5) containing 300 mM NaCl. A sample solution (40 μL) was mixed with 100 μL of 0.88 mM FAPGG solution, and the mixture was incubated at 37 °C for 5 min. To start the reaction, 60 μL of ACE solution (0.20 U/mL) was added; absorbance was measured at 340 nm and recorded every 1 min for 30 min using a SpectraMax 190 absorbance microplate reader (Molecular Devices, Sunnyvale, USA). The slope averaged over a linear interval of 10–30 min was taken as a measure of the ACE inhibitory activity. The degree of ACE inhibition was calculated according to the following equation: ACE inhibition rate (%) = [1 − (slope inhibitior/slope control)] × 100(2)
In vitro digestion was performed according to the method of Cing et.al. The purified peptide sample was mixed with 0.1 M phosphate buffer (pH 2.0) and pepsin (E/S 4%, w/w); the reaction was allowed to proceed for 2 h at 37 °C and stopped by heating at 100 °C for 10 min. Subsequently, the remaining suspension was adjusted to pH 8.0 with 5 M NaOH solution and further digested with trypsin (E/S 4%, w/w); the solution was incubated at 37 °C for 2 h and then heated at 100 °C for 10 min. The protein hydrolysate was centrifuged at 8000 rpm/min for 15 min, and the supernatant was assayed for ACE inhibitory activity.

[3] = biological target: T1, ACE (from rabbit lung); test: ACE inhibition and IC50 assay (FAPGG substrate); assay type: biochemical
Protocol: as §1
The activity of each sample was tested in triplicate. The IC50 value, the concentration of peptide required to reduce ACE activity by 50%, was determined by regression analysis of ACE inhibition (%) vs. peptide concentration.

[4] = biological target: T2, Angiotensin I-converting enzyme (from rabbit lung) (rabbit) (UniProt P12822)
T2 sequence: T1 sequence (P12822 34-1310)

[5] = biological target: T2, Angiotensin I-converting enzyme (from rabbit lung) (rabbit); remark: listed apart in the source
[6] = peptides from Undaria pinnatifida
[7] = peptides from Porphyra yezoensis
[8] = peptides purified from Ulva rigida protein hydrolysate
[9] = pH 2, synthetic peptide at 0.2 mg/mL, after pepsin hydrolysis for 2 h (0.1 M phosphate buffer pH 2.0, E/S 4% w/w, 37 °C)
[10] = synthetic peptide at 0.2 mg/mL, Control (no digestion)
[11] = synthetic peptide at 0.2 mg/mL, pepsin hydrolysis for 2 h (pH 2.0, 37 °C) followed by trypsin hydrolysis for 2 h (pH 8.0, 37 °C), E/S 4% w/w each
[12] = peptides identified in fraction C2-8, FAPGG 0.88 mM, ACE 0.20 U/mL, 50 mM Tris-HCl pH 7.5, 300 mM NaCl, 37 °C, absorbance 340 nm, tested in triplicate
[13] = purified ACE inhibitors, same values as in μM given in mg/mL

Molecule: Ala-Ile-Tyr-Lys
- IC50 [1, 6]: 213 µM

Molecule: Ala-Lys-Tyr-Ser-Tyr
- IC50 [1, 7]: 1.52 µM

Molecule: Ala-Phe-Leu
- IC50 [1, 8]: 65.8 µM

- stability for pepsin and trypsin digestion [2]: good stability
- inhibition at 200 µg/mL [2, 9]: 52.98 ± 0.19%
- inhibition at 200 µg/mL [2, 10]: 50.07 ± 0.07%
- inhibition at 200 µg/mL [2, 11]: 51.32 ± 0.02%
- IC50 [3, 12]: 219 µM
- IC50 [3, 13]: 219 µM
Molecule: FGMPLDR [FGMPLDR, Phe-Gly-Met-Pro-Leu-Asp-Arg]

Molecule: Gln-Val-Glu-Tyr
- IC50 ([1]; peptide from hydrolyzed Gracilariopsis lemaneiformis): 474 µM

Molecule: Ile-Pro
- IC50 [1, 8]: 87.6 µM

Molecule: Ile-Tyr
- IC50 [1, 7]: 2.69 µM

Molecule: Leu-Arg-Tyr
- IC50 [1, 7]: 5.06 µM

Molecule: Lys-Phe-Tyr-Gly
- IC50 [1, 6]: 90.5 µM

- stability for pepsin and trypsin digestion [2]: good stability
- inhibition at 200 µg/mL [2, 9]: 56.84 ± 0.04%
- inhibition at 200 µg/mL [2, 10]: 59.92 ± 0.04%
- inhibition at 200 µg/mL [2, 11]: 58.63 ± 0.13%
- IC50 [3, 12]: 237 µM
- IC50 [3, 13]: 236 µM
Molecule: MELVLR [MELVLR, Met-Glu-Leu-Val-Leu-Arg]

Molecule: Met-Lys-Tyr
- IC50 [1, 7]: 7.26 µM

Molecule: Tyr-Asn-Lys-Leu
- IC50 [1, 6]: 21 µM

Molecule: Tyr-Lys-Tyr-Tyr
- IC50 [1, 6]: 64.2 µM

- IC50 of ACE inhibition (hydrolysis of FAPGG by ACE, absorbance at 340 nm, 37 °C, 50 mM Tris-HCl pH 7.5, 300 mM NaCl) [4]: 219 μM
- ACE Inhibitory Activity (%) of the synthetic peptide at 0.2 mg/mL, after pepsin hydrolysis for 2 h [5]: 53%
- ACE Inhibitory Activity (%) of the synthetic peptide at 0.2 mg/mL, after pepsin hydrolysis for 2 h followed by trypsin hydrolysis for 2 h [5]: 51.3%
- ACE Inhibitory Activity (%) of the synthetic peptide at 0.2 mg/mL, control (not digested) [5]: 50.1%
Molecule: FGMPLDR [Phe-Gly-Met-Pro-Leu-Asp-Arg]

- IC50 of ACE inhibition (hydrolysis of FAPGG by ACE, absorbance at 340 nm, 37 °C, 50 mM Tris-HCl pH 7.5, 300 mM NaCl) [4]: 237 μM
- ACE Inhibitory Activity (%) of the synthetic peptide at 0.2 mg/mL, after pepsin hydrolysis for 2 h [5]: 56.8%
- ACE Inhibitory Activity (%) of the synthetic peptide at 0.2 mg/mL, after pepsin hydrolysis for 2 h followed by trypsin hydrolysis for 2 h [5]: 58.6%
- ACE Inhibitory Activity (%) of the synthetic peptide at 0.2 mg/mL, control (not digested) [5]: 59.9%
Molecule: MELVLR [Met-Glu-Leu-Val-Leu-Arg]
